Data reported in PMC6268373, “Systematic Study of the Physicochemical Properties of a Homologous Series of Aminobisphosphonates” (Molecules, 2012).
Values after ≈ are worked out from the molar mass of the structure shown. Read-outs that look alike come from different tables or passages of the source.

How the values were obtained:
[1] = cited from earlier work; for logK, pKa3: H2L2− + H+ ⇋ H3L−; for logK, pKa2: H3L− + H+ ⇋ H4L; for logK, pKa1: H4L + H+ ⇋ H5L+; for logK, pKa4: HL3− + H+ ⇋ H2L2−; for logK, pKa5: L4− + H+ ⇋ HL3−
[2] = pKa determination with Sirius instrument (PCA200)
[3] = Thermal analysis (TG/DTA and TGA 7); assay type: physicochemical; conditions: for Td: 5 °C/min; for Temp. range of 1st cleavage: lower limit taken at 0.5 wt-%
Description: Thermal decomposition paths with evaluation of crystal water content were obtained parallel with two instruments; Perkin Elmer STA 6000 thermogravimetric TG/DTA and Perkin Elmer TGA 7 analyzers (Perkin Elmer, Massachusetts, USA). Measurements were carried out in an open platinum crucible (the higher 5 mm crucible was used in TG/DTA and a shallower 2 mm crucible in TGA 7) under air atmosphere (flow rate of 45 mL/min) with a heating rate of 5 °C/min over the temperature range of 25−700 °C. The temperature calibration of STA 6000 was made using melting points of indium (156.60 °C) and zinc (419.5 °C) standards. For TGA 7 magnetic Curie-point calibration technique (Alumel, Ni, Perkalloy, Fe) was used. The weight balance of both instruments was calibrated by measuring a standard weight of 50 mg at room temperature. The sample weights used in the measurements were about 4–8 mg, and for each bisphosphonate, it was attempted to keep the same on both instruments. The melting/dehydration/decomposition behavior of the compounds was also visually monitored using a Stuart Scientific SMP3 melting point apparatus.

[4] = Aqueous solubility of saturated solution at 21 °C (phosphorus determination by molybdenum blue spectrophotometry)
[5] = Protonation constants by (traditional) potentiometric titration (TPT), SUPERQUAD; conditions: 0.1 M NaNO3, 25 °C; for pKa: aqueous 0.1 M NaNO3, log K, TPT
Source text: Results were obtained from […] as overall stability constants (log β values); following the chosen zero level H2L^2−. This zero level H2L^2− was chosen in the calculations to avoid any accumulation of errors of protonation constants at different pH ranges. The log β results for reactions (4) and (5) obtained in the final refinements are listed in Table S3 (see Supporting Information) with error limits (±3σ), number of points/number of titrations and χ^2/Σ statistics.
The details of the experiments using (traditional) potentiometric titration are presented in the Supporting Information. The results of the determination by Sirius instrument are shown in the Supporting Information. Potentiometric titrations of the compounds were performed with the PCA200 apparatus (Sirius Analytical Instruments Ltd, Forest Row, East Sussex, UK).
Table S2. The effect of pH on aqueous solubility (mg/L) of aminoalkylbis(phosphonates) […]
Solubility (g/L) of Compound
Determination of the Protonation Constants Using (traditional) Potentiometric Titration. Reagents:
Aqueous 0.1 M NaOH was prepared from Titrisol ampoules (Merck) and 0.1 M HNO3 from Convol ampoules (BDH). The background solution was prepared by dissolving NaNO3 in deionised water.
The NaNO3 and NaCl used in reference electrode were p.a. grade (Merck). The water used in the dilutions and titration solutions was purified with Milli-RO and Milli-Q water purification systems […]
Potentiometric measurements: The protonation equilibria was studied in aqueous 0.1 M NaNO3 at 25.0 ± 0.1 °C through a series of potentiometric EMF titrations carried out with a Schott-Geräte GmbH […]
The cell arrangement for the measurement of the hydrogen ion concentration [H+] was as follows:
−RE […] equilibrium solution […] GE+ (1) where GE denotes a glass electrode (Schott N2680), and RE is Hg, Hg2Cl2 […] 0.01 M NaCl, 0.09 M NaNO3. Expression (2) is valid assuming that the activity coefficients are constant.
The cell parameter E0 and the liquid junction coefficient jH, valid in acidic solutions, were determined for each titration by adding a known amount of HNO3 to the background electrolyte. The value of the liquid junction coefficient jOH, valid in basic solutions, was determined periodically. Only stable EMF readings were used in the calculations.
During the measurements of the protonation equilibria, aqueous 0.1 M NaOH or 0.1 M HNO3 was […]
Four to eight independent titrations were carried out for each ligand. The number of data points used in […]
Data treatment: Protonation and deprotonation of the ligands were controlled by addition of HNO3 or NaOH. The curves of ZH versus pH were drawn to visualize the experimental data sets. ZH describes the average number of H+ ions added or liberated per mole of ligand and is given by the relationship […]
where CH denotes the total concentration of protons calculated over the zero level H2L2−.
In the evaluation of the equilibrium constants, the following two-component equilibria were utilized:
H2L2− ⇋ H2-xL(2+x)– + xH+ , x = 1–2; β–x (4) xH+ + H2L2− ⇋ Hx+2Lx–2, x = 1–3; βx (5)
Mathematical analysis of the systems involves a search for protonation models and equilibrium constants that best describe the experimental data. The calculations were carried out with the computer […]
1200). The sample standard deviation Σ and the χ2 statistics used as criteria in the selection of the models were those provided by the program. As a means to improve the confidence level, the error limits for log β values determined in this study are reported as three times the standard deviation estimated by the program.
Figure S2. ZH vs. pH for protonation of compounds (a) 1; (b) 2; (c) 3; (d) 4 and (e) 5.

[6] = overall protonation, zero level H2L2−

pKa 2 (Sirius) [2]: 2.32
pKa 3 (Sirius) [2]: 5.93
pKa 4 (Sirius) [2]: 10.05
pKa 5 (Sirius) [2]: 12.54
Onset temperature of first cleavage ([3]; TG/DTA, higher crucible): 149 °C
Td ([3]; TG/DTA, higher crucible, air): 149 °C
Temp. range of 1st cleavage ([3]; TG/DTA, higher crucible): 134–199 °C
Onset temperature of first cleavage ([3]; TGA 7, shallow crucible): 155 °C
Td ([3]; TGA 7, shallow crucible, air): 155 °C
Temp. range of 1st cleavage ([3]; TGA 7, shallow crucible): 102–203 °C
Td (decomposition onset) ([3]; average from both instruments, air, heating rate 5 °C/min): 152 °C
temperature of first decomposition step (cleavage of amino group / degradation) ([3]; thermogravimetry, air): 100–200 °C
solubility at 30 min ([4]; Milli-Q water, unbuffered, 21 °C, water, thermodynamic from solid): 10.9 mg/mL (≈ 46.5 mM)
pH of saturated solution ([4]; saturated aqueous solution, 21 °C, agitation time 30 min): 4.62
water solubility (in words) ([4]; water): almost freely soluble
pKa ([5]; pKa1 (H4L + H+ ⇋ H5L+), approximate values): 1.06
pKa ([5]; pKa2 (H3L− + H+ ⇋ H4L)): 1.7
pKa ([5]; pKa3 (H2L2− + H+ ⇋ H3L−)): 5.9
pKa ([5]; pKa4 (HL3− + H+ ⇋ H2L2−)): 10
pKa ([5]; pKa5 (L4− + H+ ⇋ HL3−)): 12.9
logβx ± 3σ, x = 1 (H3L−) [5, 6]: 5.90 ± 0.02
logβx ± 3σ, x = 2 (H4L) [5, 6]: 7.60 ± 0.05
logβx ± 3σ, x = 3 (H5L+) [5, 6]: 8.66 ± 0.30
logβx ± 3σ, x = −1 (HL3−) [5, 6]: −10.04 ± 0.03
logβx ± 3σ, x = −2 (L4−) [5, 6]: −22.90 ± 0.23
Structure (SMILES): NCCC(O)(P(=O)(O)O)P(=O)(O)O [Compound 1, (3-Amino-1-hydroxypropylidene)bisphosphonic acid]
logK, pKa3 ([1]; first Ref.18 column): 6.01
logK, pKa3 ([1]; ref 4): 5.86
logK, pKa3 ([1]; ref 13): 5.83
logK, pKa3 ([1]; ref 14): 5.85
logK, pKa3 ([1]; ref 15): 6.01
logK, pKa3 ([1]; ref 17): 6.04
logK, pKa3 ([1]; second Ref.18 column): 5.39
logK, pKa2 ([1]; ref 4): 2.04
logK, pKa2 ([1]; ref 13): 2.55
logK, pKa2 ([1]; ref 14): 1.80
logK, pKa2 ([1]; ref 15): 2.56
logK, pKa2 ([1]; ref 17): 1.93
logK, pKa1 ([1]; ref 14): <1.2
logK, pKa1 ([1]; ref 17): 1.24
logK, pKa4 ([1]; first Ref.18 column): 9.97
logK, pKa4 ([1]; ref 4): 9.90
logK, pKa4 ([1]; ref 13): 9.9
logK, pKa4 ([1]; ref 14): 10.30
logK, pKa4 ([1]; ref 15): 9.80
logK, pKa4 ([1]; ref 17): 10.18
logK, pKa4 ([1]; second Ref.18 column): 9.46
logK, pKa5 ([1]; first Ref.18 column): 10.74
logK, pKa5 ([1]; ref 4): 11.02
logK, pKa5 ([1]; ref 13): 10.8
logK, pKa5 ([1]; ref 14): 13.06
logK, pKa5 ([1]; ref 15): 10.95
logK, pKa5 ([1]; ref 17): 12.14
logK, pKa5 ([1]; second Ref.18 column): 10.40
